# Measurements from patent publication US20220281886A1, “NATRIURETIC PEPTIDE RECEPTOR A AGONISTS USEFUL FOR THE TREATMENT OF CARDIOMETABOLIC DISEASES, KIDNEY DISEASE AND DIABETES” (Merck Sharp & Dohme Corp., priority 2019, published 2022).
# Molecular target: T1, hNPRA (Homo sapiens, UniProt P16066)
# T1 construct: expressed in transfected cells
# T1 sequence (P16066 33-1061): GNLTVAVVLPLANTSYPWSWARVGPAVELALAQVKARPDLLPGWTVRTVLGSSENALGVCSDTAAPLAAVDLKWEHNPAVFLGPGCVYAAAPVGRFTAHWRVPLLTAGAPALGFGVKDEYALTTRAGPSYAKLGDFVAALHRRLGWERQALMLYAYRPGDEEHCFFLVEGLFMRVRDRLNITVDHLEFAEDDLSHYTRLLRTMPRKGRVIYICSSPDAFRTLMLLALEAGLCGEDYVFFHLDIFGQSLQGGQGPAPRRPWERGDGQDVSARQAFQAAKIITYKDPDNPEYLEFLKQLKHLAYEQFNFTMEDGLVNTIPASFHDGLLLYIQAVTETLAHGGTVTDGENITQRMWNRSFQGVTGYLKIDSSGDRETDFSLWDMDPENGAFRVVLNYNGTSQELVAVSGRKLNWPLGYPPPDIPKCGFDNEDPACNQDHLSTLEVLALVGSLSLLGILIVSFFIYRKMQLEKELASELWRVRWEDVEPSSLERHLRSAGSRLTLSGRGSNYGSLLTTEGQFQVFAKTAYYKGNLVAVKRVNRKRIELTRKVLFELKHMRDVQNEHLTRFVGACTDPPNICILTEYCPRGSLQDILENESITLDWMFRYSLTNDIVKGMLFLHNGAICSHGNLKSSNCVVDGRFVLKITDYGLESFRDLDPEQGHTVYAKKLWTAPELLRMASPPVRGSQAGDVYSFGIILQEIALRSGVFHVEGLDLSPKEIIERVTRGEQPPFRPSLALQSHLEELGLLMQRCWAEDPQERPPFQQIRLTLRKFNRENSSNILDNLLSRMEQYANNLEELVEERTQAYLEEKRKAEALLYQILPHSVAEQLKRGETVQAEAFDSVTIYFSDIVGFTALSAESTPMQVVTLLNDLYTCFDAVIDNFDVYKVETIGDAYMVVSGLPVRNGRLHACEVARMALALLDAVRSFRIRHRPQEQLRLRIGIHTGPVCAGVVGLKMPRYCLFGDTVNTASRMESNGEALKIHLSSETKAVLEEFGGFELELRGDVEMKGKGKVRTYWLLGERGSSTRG
# Test: NPRA Functional Cell Assay (cGMP HTRF)
# Assay type: cell-based
# Settings: Human NPRA HEK JumpIn stable cells; cGMP by HTRF after 1 hour at 37° C.; 10-point dose response
# Description: Assay Buffer components HEPES and Opti-MEM® I Reduced-Serum with Glutamine (no phenol red) were from Gibco/Invitrogen (Thermo Fisher Scientific, Waltham, Mass. USA). 3-Isobutyl-1-methylxanthine (IBMX) and 4-(3-Butoxy-4-methoxybenzyl)imidazolidin-2-one (RO20) were obtained from Sigma-Aldrich (St. Louis, Mo., USA). DPBS (Dulbecco's phosphate-buffered saline) without Ca2+ and Mg2+ was purchased from GE Healthcare Bio-Sciences (Pittsburgh, Pa., USA). 384 well white Optiplates were from Perkin Elmer (Atlantic Highlands, N.J., USA). Human ANP (Atrial Natriuretic Peptide) (1-28) was purchased from Sigma-Aldrich (Catalog #A1663) and rat ANP (1-28) from Bachem (Torrance, Calif., USA) (Catalog #H2100). Human-BNP (Human-Brain Natriuretic Peptide) (1-32 AA) was purchased from American Peptide Company (Sunnyvale, Calif., USA) (product No. 14-1-90). cGMP kits were purchased from Cisbio. The assay ready frozen (ARF) Human/rat/dog NPRA HEK JumpIn Stable frozen cells (low passage number 5-11) were prepared in-house.
# Test compounds were titrated in DMSO in a 10-point dose response in a separate step followed by a 100-fold dilution into the reaction. Positive response for each assay was determined using 10 nM rat-ANP peptide (rat cells) or 50 nM h-ANP peptide (human and dog cells).
# Cells were thawed, washed with DPBS and resuspended in assay buffer (Opti-MEM+Glutamine, phenol red free media, 10 mM HEPES, 100 uM IBMX and 100 uM RO20) that was warmed to 37° C. Cells were then transferred to microplates via a Microplate Combi dispenser at a density of 1500, 400 and 1200 cells/well for human, rat and dog cells respectively, followed by acoustic transfer (Echo) of compound.
# (§1) Compounds and cells were incubated at 37° C. with 5% CO2 for 1 hour, after which the cells were lysed and cGMP was captured using a CisBio cGMP HTRF assay kit. The TRF signal was measured with an Envision plate reader (emission set to 615 and 665 nm) after 1 hour incubation at ambient temperature. The TRF signal was converted to [cGMP] through the use of a cGMP calibration curve on each microplate. EC50's were generated from the resulting dose response curves by use of a 4 parameter logistic algorithm.
# Assay Buffer components HEPES and Opti-MEM® I Reduced-Serum with Glutamine (no phenol red) were from Gibco/Invitrogen. 3-Isobutyl-1-methylxanthine (IBMX) and 4-(3-Butoxy-4-methoxybenzyl)imidazolidin-2-one (RO20) were obtained from Sigma. DPBS (Dulbecco's phosphate-buffered saline) without Ca2+ and Mg2+ was purchased from GE Healthcare Bio-Sciences (Pittsburgh, Pa., USA). 384 well white Optiplates were from Perkin Elmer (Atlantic Highlands, N.J., USA). Human ANP (1-28) was purchased from Sigma (A1663) and rat ANP (1-28) from Bachem (H2100). Human-BNP (1-32 AA) was purchased from American Peptide Company (Sunnyvale, Calif., USA) (product No. 14-1-90). cGMP kits were purchased from Cisbio (Bedford, Mass., USA). The assay ready frozen (ARF) Human/rat/dog NPRA HEK JumpIn Stable frozen cells (low passage number 5-11) were prepared in-house.
# as §1, with “Envision®” for “Envision”, “(Perkin Elmer)(emission” for “(emission”
# hNPRA EC50 (nM) are were determined for the compounds of Example 1 through 273 and are reported in the Experimental section of this application.
row,Compound,EC50
1,"CC(C)(C)[C@H]1CCc2nc3ccc(C(=O)N[C@H](CCN4CCC(O)CC4)c4ccc(N5CCOC5=O)cc4)cc3cc2C1 [Example 3, (7S)-7-tert-butyl-N-{(1R)-3-(4-hydroxypiperidin-1-yl)-1-[4-(2-oxo-1,3-oxazolidin-3-yl)phenyl]propyl}-5,6,7,8-tetrahydroacridine-2-carboxamide]",753 nM
2,"CC(C)[C@]1(F)CCc2nc3c(F)cc(C(=O)N[C@H](CCN4CCC5(CCCO5)CC4)c4ccc(-c5ccnnc5)nc4)cc3cc2C1 (racemic) [Example 55, rac-(7S)-4,7-difluoro-7-isopropyl-N-[rac-(1R)-3-(1-oxa-8-azaspiro[4.5]decan-8-yl)-1-(6-pyridazin-4-yl-3-pyridyl)propyl]-6,8-dihydro-5H-acridine-2-carboxamide]",344 nM
3,"CC(C)[C@]1(F)CCc2nc3c(F)cc(C(=O)N[C@H](CCN4CCCC4)c4ccc(-c5ccnnc5)nc4)cc3cc2C1 (racemic) [Example 35, rac-(7S)-4,7-difluoro-7-isopropyl-N-[rac-(1R)-1-(6-pyridazin-4-yl-3-pyridyl)-3-pyrrolidin-1-ium-1-yl-propyl]-6,8-dihydro-5H-acridine-2-carboxamide;2,2,2-trifluoroacetate]",285 nM
4,CC(C)[C@]1(F)CCc2nc3c(F)cc(C(=O)N[C@H](CCN4CCC(O)CC4)c4ccc(N5CC(=O)NC5=O)nc4)cc3cc2C1 [Example 28],321 nM
5,"CC(C)[C@]1(F)CCc2nc3c(F)cc(C(=O)N[C@H](CCN4CC(O)C4)c4ccc(-c5ccnnc5)nc4)cc3cc2C1 (racemic) [Example 63, rac-(7S)-4,7-difluoro-7-isopropyl-N-[rac-(1R)-3-(3-hydroxyazetidin-1-ium-1-yl)-1-(6-pyridazin-4-yl-3-pyridyl)propyl]-6,8-dihydro-5H-acridine-2-carboxamide;2,2,2-trifluoroacetate]",1190 nM
6,"CC(C)[C@]1(F)CCc2nc3c(F)cc(C(=O)N[C@H](CCN4CCC(C(F)(F)F)CC4)c4ccc(-c5ccnnc5)nc4)cc3cc2C1 (racemic) [Example 64, rac-(7S)-4,7-difluoro-7-isopropyl-N-[rac-(1R)-1-(6-pyridazin-4-yl-3-pyridyl)-3-[4-(trifluoromethyl)-1-piperidyllpropyl]-6,8-dihydro-5H-acridine-2-carboxamide]",1060 nM
7,"CC1([C@H]2CCc3nc4ccc(C(=O)N[C@H](CCN5CCC[C@H]5CO)c5ccc(N6CCOC6=O)cc5)cc4cc3C2)CC1 [Example 2, (S)-N-((R)-3-((S)-2-(hydroxymethyl)pyrrolidin-1-yl)-1-(4-(2-oxooxazolidin-3-yl)phenyl)propyl)-7-(1-methylcyclopropyl)-5,6,7,8-tetrahydroacridine-2-carboxamide]",1720 nM

# These reach a lower EC50. Values come first.
row,EC50,Compound
1,270 nM,"CC(C)[C@]1(F)CCc2nc3c(F)cc(C(=O)N[C@H](CCN(C)C)c4ccc(-c5ccnnc5)nc4)cc3cc2C1 (racemic) [Example 37, dimethyl-[rac-(3R)-3-(6-pyridazin-4-yl-3-pyridyl)-3-[[rac-(7S)-4,7-difluoro-7-isopropyl-6,8-dihydro-5H-acridine-2-carbonyl]amino]propyl]ammonium;2,2,2-trifluoroacetate]"
2,251 nM,"CC(C)[C@]1(F)CCc2nc3c(F)c(F)c(C(=O)N[C@H](CCN4CCC(O)CC4)c4ccc(N5CCOC5=O)cc4)cc3cc2C1 [Example 7, (7S)-3,4,7-trifluoro-N-{(1R)-3-(4-hydroxypiperidin-1-yl)-1-[4-(2-oxo-1,3-oxazolidin-3-yl)phenyl]propyl}-7-(1-methylethyl)-5,6,7,8-tetrahydroacridine-2-carboxamide]"
3,216 nM,"CC(C)[C@]1(F)CCc2nc3c(F)cc(C(=O)N[C@H](CCN4CCCCC4CCN(C)C)c4ccc(-c5ccnnc5)nc4)cc3cc2C1 (mixture of isomers) [Example 43, rac-(7S)-4,7-difluoro-7-isopropyl-N-[rac-(1R)-3-[2-[2-(dimethylamino)ethyl]piperidin-1-ium-1-yl]-1-(6-pyridazin-4-yl-3-pyridyl)propyl]-6,8-dihydro-5H-acridine-2-carboxamide;2,2,2-trifluoroacetate]"
4,188 nM,"CC(C)[C@]1(F)CCc2nc3c(F)cc(C(=O)N[C@H](CCN4CCC(C(C)(C)O)CC4)c4ccc(-c5ccnnc5)nc4)cc3cc2C1 (racemic) [Example 47, rac-(7S)-4,7-difluoro-7-isopropyl-N-[rac-(1R)-3-[4-(1-hydroxy-1-methyl-ethyl)piperidin-1-ium-1-yl]-1-(6-pyridazin-4-yl-3-pyridyl)propyl]-6,8-dihydro-5H-acridine-2-carboxamide;2,2,2-trifluoroacetate]"
5,182 nM,"CC(C)[C@]1(F)CCc2nc3c(F)cc(C(=O)N[C@H](CCN4CCC(CN5CCOCC5)CC4)c4ccc(-c5ccnnc5)nc4)cc3cc2C1 (racemic) [Example 60, rac-(7S)-4,7-difluoro-7-isopropyl-N-[rac-(1R)-3-[4-(morpholinomethyl)-1-piperidyl]-1-(6-pyridazin-4-yl-3-pyridyl)propyl]-6,8-dihydro-5H-acridine-2-carboxamide]"
6,91.1 nM,"CC(C)[C@]1(F)CCc2nc3c(F)cc(C(=O)N[C@H](CCN4CCC(C(O)C5(CO)CC5)CC4)c4ccc(-c5ccnnc5)nc4)cc3cc2C1 (mixture of isomers) [Example 54, rac-(7S)-4,7-difluoro-7-isopropyl-N-[rac-(1R)-3-[4-[hydroxy-[1-(hydroxymethyl)cyclopropyl]methyl]-1-piperidyl]-1-(6-pyridazin-4-yl-3-pyridyl)propyl]-6,8-dihydro-5H-acridine-2-carboxamide]"
7,60.3 nM,"CC(C)[C@]1(F)CCc2nc3c(F)cc(C(=O)N[C@H](CCN4CCC5(CCO5)CC4)c4ccc(-c5ccnnc5)nc4)cc3cc2C1 (racemic) [Example 62, rac-(7S)-4,7-difluoro-7-isopropyl-N-[rac-(1R)-3-(1-oxa-7-azaspiro[3.5]nonan-7-yl)-1-(6-pyridazin-4-yl-3-pyridyl)propyl]-6,8-dihydro-5H-acridine-2-carboxamide]"
